Details of data set [1]: method as in PMID 32511917. The conditions noted are these: cited from earlier work.
Data set [2] concerns the target T1, TNKS2 (Homo sapiens, UniProt Q9H2K2).
T1 construct: TNKS2 (residues 873–1162); made in house
T1 sequence (Q9H2K2 873-1162): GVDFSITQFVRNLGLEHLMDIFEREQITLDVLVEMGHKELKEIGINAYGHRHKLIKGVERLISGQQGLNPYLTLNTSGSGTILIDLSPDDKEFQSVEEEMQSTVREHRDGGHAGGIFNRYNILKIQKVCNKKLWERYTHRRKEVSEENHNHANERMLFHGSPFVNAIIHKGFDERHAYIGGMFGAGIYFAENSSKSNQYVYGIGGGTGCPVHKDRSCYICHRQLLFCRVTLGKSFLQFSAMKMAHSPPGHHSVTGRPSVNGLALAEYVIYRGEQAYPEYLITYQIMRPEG
Briefly: TNKS2 biochemical assay (unreacted NAD+ fluorescence). The conditions noted are these: TNKS2 5 nM, 500 nM NAD+, 20 h; quadruplicates; 95% confidence intervals in parentheses; 24: averages of multiple independent measurements; read-out: IC50 TNKS2. The method, then: New compounds were prepared in half-log dilution series, and the reactions were carried out in quadruplicates with protein and compound controls to exclude the effect of compound autofluorescence. All reactions were performed at ambient temperature. TNKS1 (20 nM) or TNKS2 (5 nM) was incubated for 20 h in assay buffer (50 mM Bis-Tris propane (BTP), pH 7.0, 0.5 mM Tris(2-carboxyethyl)phosphine (TCEP), 0.01% Triton X-100) with compound and 10 μM or 500 nM NAD^+, respectively.

The subject of data set [3] is WNT/β-catenin signaling. The data set is described as follows: cellular (HEK293) WNT/β-catenin signaling luciferase reporter assay. It counts as cell-based, human. For orientation: In a reporter assay the amount or activity of a reporter protein is the signal.
Data set [4] is described as follows: mouse peroral pharmacokinetic analysis. The format is in vivo. Conditions: mouse PO 5 mg/kg; for AUC(0-inf) at 24 h / AUC(0-t) at 24 h / Cmax at 24 h / Tmax at 24 h / half-life at 24 h / MRT inf at 24 h: IRC, in vivo; for MRT inf at 24 h: read-out: MRT 0 → ∞. The method, then: The pharmacokinetic analyses in mice were performed according to the standard protocols of Medicilon as previously described[21] following approval by local animal experiment authorities (Shanghai, China) and in compliance with FELASA guidelines and recommendations. Three IRC mice were used per treatment group: 5 mg/kg 24 in 5% DMSO, 50% PEG400 (both Sigma-Aldrich), and 45% saline as vehicle.

Data set [5] is described as follows: kinetic solubility. The format is physicochemical. Conditions: PBS pH = 7. The method, then: Kinetic solubility, microsomal stability, and plasma stability were determined following our internal protocol (Symeres). The Caco-2 and PPB determinations were performed by Cyprotex.
The mark [6] stands for this setting: Homo sapiens, HEK293, read-out: IC50 HEK293, HEK293 WNT/β-catenin signaling reporter assay, triplicates, 24: averages of multiple independent measurements.
Setting [7] is: read-out: IC50 HEK293, HEK293 WNT/β-catenin signaling reporter assay, triplicates, 24: averages of multiple independent measurements.
[8] abbreviates: Homo sapiens, HEK293, read-out: IC50 HEK293.

What is called AUC(0-inf) is the area under the concentration-time curve extrapolated to infinity. Read a high AUC(0-inf) as more exposure. As a reminder, the AUC(0-t) is the area under the concentration-time curve up to a stated or last time point. Higher therefore signals more exposure. For orientation: Cmax means the maximum level reached in the sampled fluid or tissue. The term Tmax denotes the time from dosing to the highest level. For orientation: half-life means how long it takes for the measured level to halve. Broadly, the solubility (kinetic) is solubility judged after dilution from a stock solution rather than from solid.

≈ marks a conversion by molar mass, not a printed value. Read-outs that look alike come from different tables or passages of the source.

As to `CCOc1ccc(-c2nnc([C@H]3C[C@H](NC(=O)c4ccnc5cccnc45)C3)n2-c2ccccc2F)nc1` [Compound 15a], the “metabolic stability in mouse microsomes” value in data set [1] is reported as “high metabolic instability”.

As for `CCOc1ccc(-c2nnc([C@H]3C[C@H](NC(=O)c4ccnc5cc(F)cnc45)C3)n2-c2cccnc2)nc1` [Compound 17b, N-(trans-3-(5-(5-Ethoxypyridin-2-yl)-4-(pyridin-3-yl)-4H-1,2,4-triazol-3-yl)cyclobutyl)-7-fluoro-1,5-naphthyridine-4-carboxamide], the IC50 in data set [2] was found to be 5.8 nM; in data set [3] (setting [6]), 9.1 nM; in data set [3] (setting [7]), 9 nM.

Regarding `CCOc1ccc(-c2nnc([C@H]3C[C@H](NC(=O)c4ccnc5cccnc45)C3)n2-c2ccncc2)nc1` [Compound 18a, N-(trans-3-(5-(5-Ethoxypyridin-2-yl)-4-(pyridin-4-yl)-4H-1,2,4-triazol-3-yl)cyclobutyl)-1,5-naphthyridine-4-carboxamide], the IC50 was determined as 5.4 nM in data set [2] and 13 nM in data set [3] (setting [6]).

On to `CCOc1ccc(-c2nnc([C@H]3C[C@H](NC(=O)c4ccnc5cc(F)cnc45)C3)n2-c2ccncc2)nc1` [Compound 18b, N-(trans-3-(5-(5-Ethoxypyridin-2-yl)-4-(pyridin-4-yl)-4H-1,2,4-triazol-3-yl)cyclobutyl)-7-fluoro-1,5-naphthyridine-4-carboxamide], for which the IC50 in data set [2] was 2.9 nM. In data set [3] (setting [6]), the IC50 was 6 nM. For the same compound, the IC50 in data set [3] (setting [7]) was 6.4 nM. For the same compound, in data set [4], the total exposure AUC(0-inf) at 24 h came out at 322 ng·h/mL, the AUC(0-t) at 24 h came out at 319 ng·h/mL, the Cmax at 24 h was determined as 285 ng/mL and the Tmax at 24 h came to 15 min. Further, in data set [4], the half-life at 24 h was 60 min, the MRT inf at 24 h came to 93.6 min, the CL is 260 mL/min/kg and the Vd was 22.4 L/kg. In addition, the solubility (kinetic) in data set [5] is over 80 µM.

For `CCOc1ccc(-c2nnc(C34CC(NC(=O)c5ccnc6cccnc56)(C3)C4)n2-c2ccccn2)nc1` [Compound 19, N-(3-(5-(5-Ethoxypyridin-2-yl)-4-(pyridin-2-yl)-4H-1,2,4-triazol-3-yl)bicyclo[1.1.1]pentan-1-yl)-1,5-naphthyridine-4-carboxamide], the IC50 was 13 nM in data set [2] and 20 nM in data set [3] (setting [8]).

As for `CCOc1ccc(-c2nnc(C34CC(NC(=O)c5ccnc6cccnc56)(C3)C4)n2-c2cccnc2)nc1` [Compound 20, N-(3-(5-(5-Ethoxypyridin-2-yl)-4-(pyridin-3-yl)-4H-1,2,4-triazol-3-yl)bicyclo[1.1.1]pentan-1-yl)-1,5-naphthyridine-4-carboxamide], the IC50 in data set [2] came out at 9.6 nM; in data set [3] (setting [8]), 30 nM.

For `CCOc1ccc(-c2nnc(C34CC(NC(=O)c5ccnc6cccnc56)(C3)C4)n2-c2ccncc2)nc1` [Compound 21, N-(3-(5-(5-Ethoxypyridin-2-yl)-4-(pyridin-4-yl)-4H-1,2,4-triazol-3-yl)bicyclo[1.1.1]pentan-1-yl)-1,5-naphthyridine-4-carboxamide], the figures for the IC50 in data set [2] and in data set [3] (setting [8]) were 9.4 nM and 43 nM, respectively.

On to `CCOc1ccc(-c2nnc([C@H]3C[C@H](NC(=O)c4ccnc5cccnc45)C3)n2-c2ccc(C)s2)nc1` [Compound 22a, N-(trans-3-(5-(5-Ethoxypyridin-2-yl)-4-(5-methylthiophen-2-yl)-4H-1,2,4-triazol-3-yl)cyclobutyl)-1,5-naphthyridine-4-carboxamide], for which the IC50 in data set [2] came to 0.73 nM. Besides, the IC50 in data set [3] (setting [6]) came out at 0.81 nM. In addition, in data set [4], the AUC(0-inf) at 24 h amounted to 547 ng·h/mL, the AUC(0-t) at 24 h was determined as 543 ng·h/mL, the highest level (Cmax at 24 h) was 779 ng/mL and the Tmax at 24 h was found to be 15 min. In data set [4], the half-life at 24 h was 70.2 min, the MRT inf at 24 h was 83.4 min, the CL came out at 152 mL/min/kg and the Vd was determined as 15.5 L/kg. The same compound yielded a solubility (kinetic) at 1 h in data set [5] of 50 µM (≈ 25.6 µg/mL).

With `CCOc1ccc(-c2nnc([C@H]3C[C@H](NC(=O)c4ccnc5cc(F)cnc45)C3)n2-c2ccc(C)s2)nc1` [Compound 22b, N-(trans-3-(5-(5-Ethoxypyridin-2-yl)-4-(5-methylthiophen-2-yl)-4H-1,2,4-triazol-3-yl)cyclobutyl)-7-fluoro-1,5-naphthyridine-4-carboxamide], the IC50 in data set [2] came to 1.6 nM; in data set [3] (setting [6]) it was 1 nM.

In the case of `CCOc1ccc(-c2nnc([C@H]3C[C@H](NC(=O)c4cccc5cccnc45)C3)n2-c2ccc(C)s2)nc1` [Compound 23, N-(trans-3-(5-(5-Ethoxypyridin-2-yl)-4-(5-methylthiophen-2-yl)-4H-1,2,4-triazol-3-yl)cyclobutyl)quinoline-8-carboxamide], the IC50 was found to be 2.4 nM in data set [2] and 1 nM in data set [3] (setting [6]).

With `CCOc1ccc(-c2nnc([C@H]3C[C@H](NC(=O)c4cccc5ncc(C)nc45)C3)n2-c2ccccc2F)nc1` [Compound 26, N-(trans-3-(5-(5-Ethoxypyridin-2-yl)-4-(2-fluorophenyl)-4H-1,2,4-triazol-3-yl)cyclobutyl)-3-methylquinoxaline-5-carboxamide], the figures for the IC50 in data set [2] and in data set [3] (setting [6]) were 1.5 nM and 2.2 nM, respectively.

With `CCOc1ccc(-c2nnc([C@H]3C[C@H](NC(=O)c4cccc5nc(C)cnc45)C3)n2-c2ccccc2F)nc1` [Compound 27, N-(trans-3-(5-(5-Ethoxypyridin-2-yl)-4-(2-fluorophenyl)-4H-1,2,4-triazol-3-yl)cyclobutyl)-2-methylquinoxaline-5-carboxamide], the IC50 in data set [2] amounted to 1.1 nM; in data set [3] (setting [6]), 2.4 nM.

As for `CCOc1ccc(-c2nnc([C@H]3C[C@H](NC(=O)c4cccc5nc(C)c(C)nc45)C3)n2-c2ccccc2F)nc1` [Compound 28, N-(trans-3-(5-(5-Ethoxypyridin-2-yl)-4-(2-fluorophenyl)-4H-1,2,4-triazol-3-yl)cyclobutyl)-2,3-dimethylquinoxaline-5-carboxamide], the IC50 in data set [2] amounted to 2.6 nM; in data set [3] (setting [6]) it was 4.3 nM.

Turning to `O=C(N[C@H]1C[C@H](c2nnc(-c3ccc(OC(F)F)cn3)n2-c2ccccc2F)C1)c1cccc2nccnc12` [Compound 29a, N-(trans-3-(5-(5-(Difluoromethoxy)pyridin-2-yl)-4-(2-fluorophenyl)-4H-1,2,4-triazol-3-yl)cyclobutyl)quinoxaline-5-carboxamide], the IC50 worked out at 1.9 nM in data set [2] and 1.2 nM in data set [3] (setting [6]).

For `O=C(N[C@H]1C[C@H](c2nnc(-c3ccccn3)n2-c2ccccc2F)C1)c1cccc2nccnc12` [Compound 30a, N-(trans-3-(4-(2-Fluorophenyl)-5-(pyridin-2-yl)-4H-1,2,4-triazol-3-yl)cyclobutyl)quinoxaline-5-carboxamide], the IC50 was found to be 1.6 nM in data set [2], 0.29 nM in data set [3] (setting [6]) and 0.286 nM in data set [3] (setting [7]).

Consider `Cc1cccc(-c2nnc([C@H]3C[C@H](NC(=O)c4cccc5nccnc45)C3)n2-c2ccccc2F)n1` [Compound 31a, N-(trans-3-(4-(2-Fluorophenyl)-5-(6-methylpyridin-2-yl)-4H-1,2,4-triazol-3-yl)cyclobutyl)quinoxaline-5-carboxamide], for which, in data set [2], the IC50 turned out to be 1.7 nM. Moreover, in data set [3] (setting [6]), the IC50 came to 1.5 nM. In data set [4], the AUC(0-inf) at 24 h is 3400 ng·h/mL, the AUC(0-t) at 24 h was determined as 3400 ng·h/mL, the concentration peaked (Cmax at 24 h) at 2770 ng/mL and the Tmax at 24 h amounted to 15 min. In addition, in data set [4], the half-life at 24 h is 45.6 min, the MRT inf at 24 h came to 74.4 min, the CL is 24.5 mL/min/kg and the Vd was determined as 1.61 L/kg. The same compound displayed a kinetic solubility in data set [5] of over 80 µM.

For `Cc1cccc(-c2nnc([C@H]3C[C@H](NC(=O)c4cc(F)cc5nccnc45)C3)n2-c2ccccc2F)n1` [Compound 31b, N-(trans-3-(4-(2-Fluorophenyl)-5-(6-methylpyridin-2-yl)-4H-1,2,4-triazol-3-yl)cyclobutyl)-7-fluoroquinoxaline-5-carboxamide], the IC50 in data set [2] stood at 1.6 nM. The IC50 in data set [3] (setting [6]) amounted to 0.17 nM. The IC50 in data set [3] (setting [7]) came to 0.169 nM. In data set [4], the AUC(0-inf) at 24 h is 5320 ng·h/mL, the AUC(0-t) at 24 h was 5310 ng·h/mL, the Cmax at 24 h worked out at 5800 ng/mL and the Tmax at 24 h was determined as 15 min. In data set [4], the half-life at 24 h is 35.4 min, the MRT inf at 24 h was found to be 88.2 min, the CL was found to be 15.7 mL/min/kg and the Vd turned out to be 0.80 L/kg. This compound showed a kinetic solubility at 1 h in data set [5] of 13 µM (≈ 6.47 µg/mL).

The record behind these values is publication PMC8713164, “Development of a 1,2,4-Triazole-Based Lead Tankyrase Inhibitor: Part II” (Journal of Medicinal Chemistry, 2021).
